# According to ChEMBL document CHEMBL3243918, “Synthesis and adrenergic beta-blocking activity of some 1,3-benzodioxole derivatives” (J Med Chem, 1977):
# Calls of active or inactive are those of the source. The calls are words filed in the database; no cut-off is given here.
# Key:
# [1] = test system: Cavia porcellus; test: Hypotensive activity at guinea pig assessed as decrease in blood pressure at 50 mg/kg, po after 5 hrs (reference value: 112 +/- 2.6 to 122 +/- 2.7 mmHg); type: functional
# [2] = Antagonist activity at guinea pig atrial beta adrenergic receptor assessed as isometric contractions by force displacement transducer; type: tissue-based, Cavia porcellus, Cardiac atrium
# [3] = test system: Cavia porcellus; test: Hypotensive activity at guinea pig assessed as decrease in blood pressure at 50 mg/kg, po after 3 hrs (reference value: 112 +/- 2.6 to 122 +/- 2.7 mmHg); type: functional
# [4] = test system: Cavia porcellus; test: Hypotensive activity at guinea pig assessed as decrease in blood pressure at 50 mg/kg, po after 1 hr (reference value: 112 +/- 2.6 to 122 +/- 2.7 mmHg); type: functional
# [5] = test system: Cavia porcellus; test: Toxicity in guinea pig assessed as increase in heart beating rate at 50 mg/kg, po; type: organism-based; parameters: dose 50 mg/kg, route oral; settings: in vivo
# [6] = test system: Cavia porcellus; test: Toxicity in guinea pig assessed as depression in heart beating rate at 50 mg/kg, po relative to control; type: organism-based; parameters: dose 50 mg/kg, route oral; settings: in vivo
# [7] = test system: Cavia porcellus; test: Hypotensive activity at guinea pig assessed as decrease in blood pressure at 100 mg/kg, po after 1 hr; type: functional, organism-based; parameters: dose 100 mg/kg
# [8] = test system: Cavia porcellus; test: Hypotensive activity at guinea pig assessed as decrease in blood pressure at 100 mg/kg, po after 5 hrs; type: functional, organism-based; parameters: dose 100 mg/kg
# [9] = test system: Cavia porcellus; test: Hypotensive activity at guinea pig assessed as decrease in blood pressure at 100 mg/kg, po after 3 hrs; type: functional, organism-based; parameters: dose 100 mg/kg
# [10] = species on record: Cavia porcellus; test: Antagonist activity at guinea pig atrial beta adrenergic receptor assessed as isometric contractions at 5 x 10^-5 M by force displacement transducer; type: tissue-based; settings: Cardiac atrium
Structure (SMILES),Activity [1] [mmHg],pA2 [2],Activity [3] [mmHg],Activity [4] [mmHg],Activity [5] [%],Activity [6] [%],Activity [7],Activity [8],Activity [9],Activity [10]
CC(C)NCC(O)c1ccc2c(c1)OCO2.Cl (stereo not given),87,6.2,84,97,25,–,–,–,–,–
CC(C)NCC(O)COc1cccc2ccccc12 (stereo not given) [PROPRANOLOL],117,–,119,141,–,–,–,–,–,–
CNCC(O)COC(=O)c1ccc2c(c1)OCO2.O=C(O)C(=O)O (stereo not given),–,5.3,–,–,–,< 10,inactive,inactive,inactive,–
CC(C)NCC(O)/C=C/c1ccc2c(c1)OCO2 (stereo not given),–,–,–,–,–,–,inactive,inactive,inactive,inactive
OC(CNC1=NCCN1)c1ccc2c(c1)OCO2 (stereo not given),–,–,–,–,–,–,inactive,inactive,inactive,inactive
N=C(N)NCCc1ccc2c(c1)OCO2,–,–,–,–,–,–,inactive,inactive,inactive,inactive
c1cc2c(cc1CCNC1=NCCN1)OCO2,–,–,–,–,–,–,inactive,inactive,inactive,inactive
CC(C)(C)NCC(O)c1ccc2c(c1)OCO2.Cl (stereo not given),77,6.5,77,83,–,–,–,–,–,–
NNc1nncc2ccccc12,–,–,–,–,–,–,–,–,–,inactive
CC(C)NCC(O)c1ccc(NS(C)(=O)=O)cc1 (stereo not given) [SOTALOL],107,6.8,108,112,–,–,–,–,–,–
CC(C)NC(C)C(O)c1ccc2c(c1)OCO2.Cl (stereo not given),94,–,91,92,–,< 10,–,–,–,inactive
CC(C)(C)NCC(O)COC(=O)c1ccc2c(c1)OCO2.Cl (stereo not given),–,6.9,–,–,–,–,inactive,inactive,inactive,–
N=C(N)NCC(O)c1ccc2c(c1)OCO2 (stereo not given),–,–,–,–,–,–,inactive,inactive,inactive,inactive
CC(C)NCC(O)COC(=O)c1ccc2c(c1)OCO2.Cl (stereo not given),–,6.9,–,–,–,–,inactive,inactive,inactive,–
